Source: ChEMBL document CHEMBL1201862, “PubChem BioAssay data set” (2004)
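These data come from cells grown in 96-well plates and exposed to compound for 48 hours at five concentrations. Abbreviation: GI50, concentration required for 50% inhibition of growth.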 Active and inactive are the calls of the source. Cut-off read from the data, not from the text of the source: active = GI50 up to about 1.1 µM and inactive = higher.

Columns and labels:
Assay in all cases: growth of human tumour cells (NCI), 48 h
A549 = tested on: A549
CCRF-CEM = tested on: CCRF-CEM
HCT-116 = tested on: HCT-116
HL-60 = tested on: HL-60
IGROV-1 = tested on: IGROV-1
M19-MEL = tested on: M19-MEL
MOLT-4 = tested on: MOLT-4
NCI-H23 = tested on: NCI-H23
NCI-H460 = tested on: NCI-H460
OVCAR-4 = tested on: OVCAR-4
OVCAR-8 = tested on: OVCAR-8
SK-MEL-2 = tested on: SK-MEL-2
SNB-75 = tested on: SNB-75
SW-620 = tested on: SW-620
U-251 = tested on: U-251
HCC 2998 = tested on: HCC 2998
MDA-MB-435 = tested on: MDA-MB-435
NCI/ADR-RES = tested on: NCI/ADR-RES
PC-3 = tested on: PC-3
BT-549 = tested on: BT-549

Row | Compound | GI50 (A549) | GI50 (CCRF-CEM) | GI50 (HCT-116) | GI50 (HL-60) | GI50 (IGROV-1) | GI50 (M19-MEL) | GI50 (MOLT-4) | GI50 (NCI-H23) | GI50 (NCI-H460) | GI50 (OVCAR-4) | GI50 (OVCAR-8) | GI50 (SK-MEL-2) | GI50 (SNB-75) | GI50 (SW-620) | GI50 (U-251) | GI50 (HCC 2998) | GI50 (MDA-MB-435) | GI50 (NCI/ADR-RES) | GI50 (PC-3) | GI50 (BT-549)
1 | COc1ccc(/N=C/c2ccc(N(CCC#N)S(=O)(=O)c3ccccc3)cc2)cc1 | > 100 µM (inactive) | > 100 µM (inactive) | > 100 µM (inactive) | > 100 µM (inactive) | > 100 µM (inactive) | > 100 µM (inactive) | > 100 µM (inactive) | > 100 µM (inactive) | > 100 µM (inactive) | > 100 µM (inactive) | > 100 µM (inactive) | > 100 µM (inactive) | > 100 µM (inactive) | > 100 µM (inactive) | > 100 µM (inactive) |  |  |  |  | 
2 | CCCCOC(=O)N[C@H]1CCc2cc(OC)c(OC)c(OC)c2-c2ccc(SC)c(=O)cc21 | < 0.01 µM (active) | < 0.01 µM (active) | < 0.01 µM (active) | 0.0123 µM (active) | 0.0101 µM (active) | < 0.01 µM (active) | < 0.01 µM (active) | < 0.01 µM (active) | < 0.01 µM (active) | 2.2 µM (inactive) | < 0.01 µM (active) | < 0.01 µM (active) | < 0.0109 µM (active) | < 0.01 µM (active) | < 0.01 µM (active) | < 0.01 µM (active) | < 10 nM (active) | < 10 nM (active) | 12.7 nM (active) | 
3 | CCCCCCCSCC1C(=O)C23C(O)C1CCC2C12COC3(O)C(O)C1C(C)(C)CCC2O (stereo unspecified) | 18.7 µM (inactive) | 2.75 µM (inactive) | 5.5 µM (inactive) | 3.96 µM (inactive) | 17.9 µM (inactive) | 15.3 µM (inactive) | 3.3 µM (inactive) | 16.3 µM (inactive) | 15.1 µM (inactive) | 11.8 µM (inactive) | 16.4 µM (inactive) | 14.8 µM (inactive) | 21.2 µM (inactive) | 0.881 µM (active) | 10.7 µM (inactive) | 15 µM (inactive) |  |  |  | 
4 | O=C(Nc1c(O)[nH]c(=S)[nH]c1=O)c1ccccc1F | > 100 µM (inactive) | > 100 µM (inactive) | > 100 µM (inactive) | > 100 µM (inactive) | > 100 µM (inactive) | > 100 µM (inactive) | > 100 µM (inactive) | > 100 µM (inactive) | > 100 µM (inactive) | > 100 µM (inactive) | > 100 µM (inactive) | > 100 µM (inactive) | > 100 µM (inactive) | > 100 µM (inactive) | > 100 µM (inactive) |  |  |  |  | 
5 | C/C(=N/NC(=O)C(N)=O)C(CC(C(=O)Nc1ccccc1C)/C(C)=N\NC(=O)C(N)=O)C(=O)Nc1ccccc1C (stereo unspecified) | > 100 µM (inactive) | > 100 µM (inactive) |  | > 100 µM (inactive) | > 100 µM (inactive) | > 100 µM (inactive) | 75.9 µM (inactive) | > 100 µM (inactive) | > 100 µM (inactive) | > 100 µM (inactive) | > 100 µM (inactive) | > 100 µM (inactive) | > 100 µM (inactive) | > 100 µM (inactive) | > 100 µM (inactive) | > 100 µM (inactive) |  |  |  | 
6 | Cc1c(C)c2cc3c(=O)ccoc3c(C)c2oc1=O | > 100 µM (inactive) | 44 µM (inactive) |  | 50.2 µM (inactive) | 39.8 µM (inactive) | 70.6 µM (inactive) | 20.9 µM (inactive) | > 100 µM (inactive) | > 100 µM (inactive) |  | > 100 µM (inactive) | > 100 µM (inactive) | 15 µM (inactive) | > 100 µM (inactive) | > 100 µM (inactive) | > 100 µM (inactive) |  |  |  | 
7 | COc1ccccc1NC(=O)C1=C(C)NC(C)=C(C(=O)Nc2ccccc2OC)C1c1ccco1 | 5.18 µM (inactive) | 5.06 µM (inactive) | 4.36 µM (inactive) | 0.638 µM (active) | 9.14 µM (inactive) | 4.63 µM (inactive) | 3.87 µM (inactive) | 6.4 µM (inactive) | 3.56 µM (inactive) | 8.57 µM (inactive) | 17.8 µM (inactive) | 3.64 µM (inactive) | 3.37 µM (inactive) | 4.49 µM (inactive) | 5.86 µM (inactive) | 8.79 µM (inactive) | 3480 nM (inactive) |  | 3470 nM (inactive) | 8.49 µM (inactive)
8 | Cc1cc(C)c(C(=O)/C(=C/c2ccccc2)c2ccccc2)c(C)c1 | 38.8 µM (inactive) | 35.1 µM (inactive) | 34.8 µM (inactive) | 27.5 µM (inactive) | 86.3 µM (inactive) | 39.9 µM (inactive) | 29 µM (inactive) | 40 µM (inactive) | 42.4 µM (inactive) | 57.9 µM (inactive) | 46.5 µM (inactive) | 11.3 µM (inactive) | 82.2 µM (inactive) | 60 µM (inactive) | 39.9 µM (inactive) |  |  |  |  | 
9 | CCSC1=CC(Cc2ccc(OC)cc2)N(C(=O)OC)C1 (stereo unspecified) | > 100 µM (inactive) | 49.7 µM (inactive) | 52.2 µM (inactive) | 21.9 µM (inactive) | > 100 µM (inactive) | > 100 µM (inactive) | > 100 µM (inactive) | > 100 µM (inactive) | > 100 µM (inactive) | > 100 µM (inactive) | > 100 µM (inactive) | 97.7 µM (inactive) | > 100 µM (inactive) | 25.2 µM (inactive) | > 100 µM (inactive) | > 100 µM (inactive) |  |  |  | 
10 | COc1ccc2c(c1)CC[C@@H]1C2CC[C@]2(C)C(=O)NC(=O)CC12 (stereo partly specified) | > 100 µM (inactive) | 88.3 µM (inactive) | > 100 µM (inactive) | 43.6 µM (inactive) | > 100 µM (inactive) | > 100 µM (inactive) | 61.8 µM (inactive) | > 100 µM (inactive) | > 100 µM (inactive) |  | > 100 µM (inactive) | > 100 µM (inactive) |  | > 100 µM (inactive) | > 100 µM (inactive) | 53.3 µM (inactive) |  |  |  | 
11 | CCCCOC(=O)NC(=O)c1cn(CCCOC(=O)NCCCCCCNC(=O)OCCCn2cc(C(=O)NC(=O)OCCCC)c(=O)[nH]c2=O)c(=O)[nH]c1=O | > 100 µM (inactive) |  | > 100 µM (inactive) | > 100 µM (inactive) | > 100 µM (inactive) | > 100 µM (inactive) |  | 44.6 µM (inactive) | > 100 µM (inactive) | > 100 µM (inactive) | > 100 µM (inactive) | > 100 µM (inactive) | > 100 µM (inactive) | > 100 µM (inactive) | > 100 µM (inactive) | > 100 µM (inactive) |  |  |  | 
12 | CCOc1ccc(/N=C/c2c3ccccc3nc3ccccc23)cc1 | 74.6 µM (inactive) | 3.59 µM (inactive) |  | 11 µM (inactive) | > 100 µM (inactive) | > 100 µM (inactive) | 4.25 µM (inactive) | 54 µM (inactive) | 48.9 µM (inactive) | 70 µM (inactive) | 65.3 µM (inactive) | 31.3 µM (inactive) | 44.8 µM (inactive) | 31.3 µM (inactive) | > 100 µM (inactive) | > 100 µM (inactive) |  |  |  | 
13 | S=c1sc2c(S)nc(S)nc2n1-c1ccccc1 | > 100 µM (inactive) | 80.2 µM (inactive) | > 100 µM (inactive) | > 100 µM (inactive) | > 100 µM (inactive) | > 100 µM (inactive) | > 100 µM (inactive) | > 100 µM (inactive) | > 100 µM (inactive) | > 100 µM (inactive) | > 100 µM (inactive) | > 100 µM (inactive) | 69.8 µM (inactive) | > 100 µM (inactive) | > 100 µM (inactive) | > 100 µM (inactive) |  |  |  | 
14 | COC(=O)[C@@]12OC[C@]34C([C@@H](O)C1O)[C@@]1(C)CC(=O)C(OC(=O)/C=C(/c5ccccc5)C(F)(F)F)=C(C)C1C[C@H]3OC(=O)[C@H](O)[C@H]42 (stereo partly specified) | 16.5 µM (inactive) | 8.71 µM (inactive) | 8.63 µM (inactive) | 1.16 µM (inactive) | 3.9 µM (inactive) | 5.08 µM (inactive) | 2.14 µM (inactive) | 4.56 µM (inactive) | 2.43 µM (inactive) | 17.7 µM (inactive) | 12.1 µM (inactive) | 7.96 µM (inactive) | 4.01 µM (inactive) |  | 6.68 µM (inactive) | 3.44 µM (inactive) |  |  |  | 
15 | C[C@]12CCC(=O)C=C1CC[C@@H]1[C@@H]2[C@@H](O)C[C@@]2(C)[C@H]1CC[C@]2(O)C(=O)CO [HYDROCORTISONE] | > 100 µM (inactive) | 18.7 µM (inactive) | > 100 µM (inactive) | > 100 µM (inactive) | > 100 µM (inactive) |  | > 100 µM (inactive) | > 100 µM (inactive) | > 100 µM (inactive) | > 100 µM (inactive) | > 100 µM (inactive) | > 100 µM (inactive) | > 100 µM (inactive) | > 100 µM (inactive) | > 100 µM (inactive) | > 100 µM (inactive) | > 100000 nM (inactive) | > 100000 nM (inactive) | > 100000 nM (inactive) | > 100 µM (inactive)
16 | COc1cc2c3c(c4ccc(OC)c(OC)c4c2cc1OC)CN1CCC[C@@H]1C3 [TYLOCREBRINE] | 0.0251 µM (active) | 0.0269 µM (active) | 0.0266 µM (active) | 0.0343 µM (active) | 0.0407 µM (active) |  | 0.043 µM (active) | 0.016 µM (active) | 0.0392 µM (active) | 0.0301 µM (active) | < 0.0146 µM (active) | < 0.0153 µM (active) | < 0.01 µM (active) | 0.0586 µM (active) | 0.019 µM (active) | 0.0533 µM (active) | 36.5 nM (active) | < 16.6 nM (active) | 58.2 nM (active) | 0.0914 µM (active)
